The record followed here is US20170042883A1, “Methods for Detecting and Treating Rhinovirus Infection” (The Procter & Gamble Company, priority 2011, published 2017).

The test system of this assay is rhinovirus infection-induced inflammatory markers (IL-6, IP-10, and RANTES) in BEAS-2B. As to the kind of experiment: rhinovirus infection-induced inflammatory markers in RV-16 infected BEAS-2B cells. Type of assay: cell-based, human. As to conditions: for anti-inflammatory effects in the rhinovirus infection mediated inflammation model: result in words. The procedure:
The effect of various identified compounds on rhinovirus infection-induced inflammatory markers (IL-6, IP-10, and RANTES) in the human bronchial epithelia cell line, BEAS-2B, was evaluated. Kaempferol, luteolin, quercetin, scutellarein, all-transretinoic acid, 3-hydroxyflavone, fustin, 3-methylquercetin, fisetin, apigenin, oxymetazoline HCl, chrysin, naringenin, pyrrolidinedithiocarbamate ammonium, 7-hydroxyflavone, myricetin, diosmetin, 4′,7-dihydroxyflavone, or eriodictyol was added to cell culture media at various doses at the time of RV-16 infection of BEAS-2B cells. IL-6, IP-10 and RANTES protein levels were measured three days post-infection. Cytotoxicity of the compounds was determined by the uptake of vital dye Rhinovirus infected BEAS-2B cells not exposed to the compounds served as a positive control, achieving maximum cytokine production. BEAS-2B cells not exposed to rhinovirus or the compounds served as a negative control. […] The study was repeated for a subset of compounds, and ibuprofen (20 µM) was added to the cell media with the compounds at the time of infection. IL-6, IP-10 and RANTES protein levels were measured two days post-infection.

3-methylquercetin: the “anti-inflammatory effects in the rhinovirus infection mediated inflammation model” value was “anti-inflammatory effects”.

Consider `O=c1c(O)c(-c2ccccc2)oc2ccccc12` [3-hydroxyflavone], for which the “anti-inflammatory effects in the rhinovirus infection mediated inflammation model” value was “anti-inflammatory effects”.

Take `O=c1cc(-c2ccc(O)cc2)oc2cc(O)ccc12` [4′,7-dihydroxyflavone]: the “anti-inflammatory effects in the rhinovirus infection mediated inflammation model” value was “anti-inflammatory effects”. Still for that read-out and setting: the entry for `O=c1cc(-c2ccccc2)oc2cc(O)ccc12` [7-hydroxyflavone] is “anti-inflammatory effects”; for `O=c1cc(-c2ccc(O)cc2)oc2cc(O)cc(O)c12` [Apigenin] it is “anti-inflammatory effects”. Still for that read-out and setting: with `O=c1c(O)c(-c2cc(O)c(O)c(O)c2)oc2cc(O)cc(O)c12` [Myricetin] the entry was “anti-inflammatory effects”. Turning to `CC1=C(/C=C/C(C)=C/C=C/C(C)=C/C(=O)O)C(C)(C)CCC1` [all-transretinoic acid], the “anti-inflammatory effects in the rhinovirus infection mediated inflammation model” value is “anti-inflammatory effects”. Same read-out and setting: with `O=c1c(-c2ccc(O)cc2)coc2cc(O)ccc12` [daidzein] the entry was “anti-inflammatory effects”. The same measure, in the same setting: with `COc1ccc(-c2cc(=O)c3c(O)cc(O)cc3o2)cc1O` [diosmetin] the entry was “anti-inflammatory effects”; with `O=C1C[C@@H](c2ccc(O)c(O)c2)Oc2cc(O)cc(O)c21` [eriodictyol], “anti-inflammatory effects”. On the same count and under the same terms, the entry for `O=c1c(O)c(-c2ccc(O)c(O)c2)oc2cc(O)ccc12` [fisetin] is “anti-inflammatory effects”; for `O=C1c2ccc(O)cc2O[C@H](c2ccc(O)c(O)c2)[C@H]1O` [fustin] it is “anti-inflammatory effects”. As to `O=c1c(-c2ccc(O)cc2)coc2cc(O)cc(O)c12` [genistein], the “anti-inflammatory effects in the rhinovirus infection mediated inflammation model” value was “anti-inflammatory effects”. Consider `CC(C)Cc1ccc(C(C)C(=O)O)cc1` (centres unmarked) [ibuprofen], for which the “levels of biomarkers associated with rhinovirus infection (IL-6, IP-10 and RANTES protein levels)” value (ibuprofen (20 µM) added with a subset of compounds at time of infection, two days post-infection, in a majority of instances) was “further reduced”. Turning to `O=c1c(O)c(-c2ccc(O)cc2)oc2cc(O)cc(O)c12` [kaempferol], the “anti-inflammatory effects in the rhinovirus infection mediated inflammation model” value is recorded as “anti-inflammatory effects”. On the same count and under the same terms, the entry for `O=c1cc(-c2ccc(O)c(O)c2)oc2cc(O)cc(O)c12` [luteolin] is “anti-inflammatory effects”; for `O=C1C[C@@H](c2ccc(O)cc2)Oc2cc(O)cc(O)c21` [naringenin] it is “anti-inflammatory effects”; for `Cc1cc(C(C)(C)C)c(O)c(C)c1CC1=NCCN1` [oxymetazoline] it is “anti-inflammatory effects”.

Turning to `O=c1c(O)c(-c2ccc(O)c(O)c2)oc2cc(O)cc(O)c12` [quercetin], the “anti-inflammatory effects in the rhinovirus infection mediated inflammation model” value is reported as “anti-inflammatory effects”.

In the case of `C[C@@H]1O[C@@H](OC[C@H]2O[C@@H](Oc3c(-c4ccc(OCCO)c(OCCO)c4)oc4cc(OCCO)cc(O)c4c3=O)[C@H](O)[C@@H](O)[C@@H]2O)[C@H](O)[C@H](O)[C@H]1O` [troxerutin], the “anti-inflammatory effects in the rhinovirus infection mediated inflammation model” value is on record as “anti-inflammatory effects”.
